Series [1] can be described thus: Solubility by visual inspection of lyophilized peptide in buffer. The series is classed as physicochemical. The note with it: for Solubility at 50 mg/mL peptide in PBS + 40 mM sodium phosphate, pH 7.4, after 30 minutes at room temperature: PBS + 40 mM sodium phosphate pH 7.4, 30 minutes room temperature; for Solubility at 100 mg/mL peptide in 100 mM sodium phosphate, pH 7.4, after 30 minutes at room temperature: 100 mM sodium phosphate pH 7.4, 30 minutes room temperature.

Series [2] can be described thus: Pharmacokinetics in SD rats (serum peptide concentration by LCMS). The class given is in vivo. As to conditions: rat, sc, single subcutaneous dose, peptide concentration 30 mg/mL; for level at 0.5 h: timepoint 0.5 hr; for level at 2 h: timepoint 2.00 hr; for level at 4 h: timepoint 4.00 hr; for level at 6 h: timepoint 6.00 hr; for level at 24 h: timepoint 24.00 hr; for level at 48 h: timepoint 48.00 hr. As to the method: SD Rats (3 per group) were treated with a single subcutaneous dose of either Peptide 283 or Peptide 310, at a peptide concentration of 30 mg/mL. Blood was collected at 0.5, 2, 4, 6, 24, 48 hours, serum was prepared and the peptide concentrations in serum were determined by LCMS.

For series [3], the target named is T1, soluble human FcRn (shFcRn) (Homo sapiens, UniProt P55899).
T1 construct: made in house; host or cells: Chinese hamster ovary (CHO) cells, glutamine synthetase expression system
As to the kind of experiment: Peptide-IgG competition ELISA. The series is classed as binding. The note with it: 3 nM human IgG, pH 6, 37° C. 2 hours. Here is the method: The wells were coated with 100 μl/well of 1 μg/ml biotinylated-shFcRn in Buffer A. The plate was sealed and incubated at 37° C. for 2 hours. Afterwards, the plate was washed with 200 μl/well of Buffer B (Buffer B: 100 mM MES pH 6, 150 mM NaCl, 0.5% BSA IgG-free (Jackson ImmunoResearch, West Grove, Pa.), 0.05% Tween-20). […] To allow for mixing, the plate was rocked for 2 minutes, sealed and incubated at 37° C. for 2 hours. […] The plate was covered, incubated for 30 minutes at room temperature and washed 4 times with 200 μl/well of ice-cold buffer B. SureBlue TMB substrate solution (100 μl/well, KPL, Gaithersburg, Md.) was added and the plate was allowed to incubate at room temperature until color developed, which took 5 to 10 minutes. Once color developed, 100 μl/well of TMB stop solution (KPL, Gaithersburg, Md.) was added and the absorbance was measured at 450 nm.
In general terms: In an ELISA, binding on a coated surface is turned into a signal by an enzyme label.

The structures appear in SMILES notation.

Usually IC50 stands for the concentration needed to halve the response being measured. Higher therefore signals lower potency.

T1 sequence (P55899 24-297 limits assumed): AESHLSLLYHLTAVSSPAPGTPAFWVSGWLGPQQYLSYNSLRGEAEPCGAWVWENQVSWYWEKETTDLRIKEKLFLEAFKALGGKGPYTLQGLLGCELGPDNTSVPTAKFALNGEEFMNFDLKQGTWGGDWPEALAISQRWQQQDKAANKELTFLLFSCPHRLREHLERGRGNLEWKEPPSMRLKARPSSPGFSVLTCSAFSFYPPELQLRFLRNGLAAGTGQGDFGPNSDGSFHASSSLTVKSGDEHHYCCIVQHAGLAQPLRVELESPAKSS
T1 sequence (P61769 21-119 partner): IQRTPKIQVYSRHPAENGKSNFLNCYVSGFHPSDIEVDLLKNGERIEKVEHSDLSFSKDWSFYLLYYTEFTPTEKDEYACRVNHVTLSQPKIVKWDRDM

As for `CC(C)C[C@H]1C(=O)N[C@@H](Cc2ccc(O)cc2)C(=O)N2CCC[C@H]2C(=O)N[C@H](C(N)=O)CSSC(C)(C)[C@H](NC(=O)[C@H](Cc2ccccc2)NC(=O)[C@H](CCCNC(=N)N)NC(=O)CCC(=O)N[C@@H](CCCNC(=N)N)C(=O)N[C@@H](Cc2ccccc2)C(=O)N[C@@H]2C(=O)N[C@@H]([C@@H](C)O)C(=O)NCC(=O)N[C@@H](Cc3c[nH]cn3)C(=O)N[C@@H](Cc3ccccc3)C(=O)NCC(=O)N(C)CC(=O)N(C)[C@@H](CC(C)C)C(=O)N[C@@H](Cc3ccc(O)cc3)C(=O)N3CCC[C@H]3C(=O)N[C@H](C(N)=O)CSSC2(C)C)C(=O)N[C@@H]([C@@H](C)O)C(=O)NCC(=O)N[C@@H](Cc2c[nH]cn2)C(=O)N[C@@H](Cc2ccccc2)C(=O)NCC(=O)N(C)CC(=O)N1C` [Peptide No. 283], in series [1], the “Solubility at 50 mg/mL peptide in PBS + 40 mM sodium phosphate, pH 7.4, after 30 minutes at room temperature” value (from here on “Solubility at 50 mg/mL peptide”) was “Insoluble” and the “Solubility at 100 mg/mL peptide in 100 mM sodium phosphate, pH 7.4, after 30 minutes at room temperature” value (shortened to “Solubility at 100 mg/mL peptide”) is listed as “Insoluble”. Moreover, in series [2], the level at 0.5 h turned out to be 23 ± 14 ng/mL, the level at 2 h is 50 ± 16 ng/mL, the level at 4 h is 66 ± 42 ng/mL and the level at 6 h came out at 68 ± 34 ng/mL. In series [2], this compound showed a level at 24 h of 41 ± 6 ng/mL and a level at 48 h of 19 ± 4 ng/mL.
`CC(C)C[C@H]1C(=O)N[C@@H](Cc2ccc(O)cc2)C(=O)N2CCC[C@H]2C(=O)N[C@H](C(=O)N[C@@H](CCCCN)C(N)=O)CSSC(C)(C)[C@H](NC(=O)[C@H](Cc2ccccc2)NC(=O)[C@H](CCCNC(=N)N)NC(=O)CCC(=O)N[C@@H](CCCNC(=N)N)C(=O)N[C@@H](Cc2ccccc2)C(=O)N[C@@H]2C(=O)N[C@@H]([C@@H](C)O)C(=O)NCC(=O)N[C@@H](Cc3c[nH]cn3)C(=O)N[C@@H](Cc3ccccc3)C(=O)NCC(=O)N(C)CC(=O)N(C)[C@@H](CC(C)C)C(=O)N[C@@H](Cc3ccc(O)cc3)C(=O)N3CCC[C@H]3C(=O)N[C@H](C(=O)N[C@@H](CCCCN)C(N)=O)CSSC2(C)C)C(=O)N[C@@H]([C@@H](C)O)C(=O)NCC(=O)N[C@@H](Cc2c[nH]cn2)C(=O)N[C@@H](Cc2ccccc2)C(=O)NCC(=O)N(C)CC(=O)N1C` [Peptide No. 310] gave a concentration for half-maximal inhibition (IC50) in series [3] of 1.8 ± 1.1 nM. Also, in series [1], the “Solubility at 50 mg/mL peptide” value is on record as “Soluble” and the “Solubility at 100 mg/mL peptide” value is “Soluble”. In series [2], this compound came in with a level at 0.5 h of 137 ± 60 ng/mL, a level at 2 h of 183 ± 81 ng/mL, a level at 4 h of 440 ± 156 ng/mL and a level at 6 h of 557 ± 268 ng/mL. In series [2], this compound showed a level at 24 h of 117 ± 36 ng/mL and a level at 48 h of 37 ± 15 ng/mL.
In series [3], `CC(C)C[C@H]1C(=O)N[C@@H](Cc2ccc(O)cc2)C(=O)N2CCC[C@H]2C(=O)N[C@H](C(=O)N[C@@H](CCCNC(=N)N)C(N)=O)CSSC(C)(C)[C@H](NC(=O)[C@H](Cc2ccccc2)NC(=O)[C@H](CCCNC(=N)N)NC(=O)CCC(=O)N[C@@H](CCCNC(=N)N)C(=O)N[C@@H](Cc2ccccc2)C(=O)N[C@@H]2C(=O)N[C@@H]([C@@H](C)O)C(=O)NCC(=O)N[C@@H](Cc3c[nH]cn3)C(=O)N[C@@H](Cc3ccccc3)C(=O)NCC(=O)N(C)CC(=O)N(C)[C@@H](CC(C)C)C(=O)N[C@@H](Cc3ccc(O)cc3)C(=O)N3CCC[C@H]3C(=O)N[C@H](C(=O)N[C@@H](CCCNC(=N)N)C(N)=O)CSSC2(C)C)C(=O)N[C@@H]([C@@H](C)O)C(=O)NCC(=O)N[C@@H](Cc2c[nH]cn2)C(=O)N[C@@H](Cc2ccccc2)C(=O)NCC(=O)N(C)CC(=O)N1C` [Peptide No. 311] yielded an IC50 of 1.5 ± 0.7 nM. In series [1], the “Solubility at 50 mg/mL peptide” value is listed as “Insoluble” and the “Solubility at 100 mg/mL peptide” value is “Insoluble”.
